{"source": "paper PMC4322365", "about": "“A Ligand-observed Mass Spectrometry Approach Integrated into the Fragment Based Lead Discovery Pipeline” (Scientific Reports, 2015)", "data": [{"biological_target": "T1, NS5B wild-type (Hepatitis C virus genotype 1b, UniProt P26663)", "T1 construct": "NS5B with a C-terminal 10-His tag was expressed in E. coli; 10-His (C); made in house; host or cells: E. coli", "assay": "In-solution binding specificity, ligand-observed MS, wild-type NS5B", "details": "WT + 204; defined as 100%", "source_text": "To evaluate the binding specificity of fragment 204 to the palm domain of NS5B through interacting with certain residues indicated in the crystallographic data, we prepared two presumable binding-site mutants in the palm domain (C366A and M414T), and a control mutant in the thumb domain (M423T). […] Therefore, this experiment strongly implicated the finding by X-ray crystallography that fragment 204 binds to the palm domain of NS5B through interaction with Cys366 and Met414 was also valid in solution.\nNS5B with a C-terminal 10-His tag was expressed in E. coli. Site-directed mutagenesis was performed using the Quick Site-directed mutagenesis kit according to the manufacturer's instructions (Stratagene, China). All constructs were verified by DNA sequencing. […]\nIn the primary screening, a mixture of 384 fragments (each at a final concentration of 25 μM) and NS5B at 50 μM was prepared in the binding buffer of 20 mM MES (pH 6.5), 300 mM NaCl and 10% glycerol, and incubated for 40 min at 25°C. […] The supernatant containing the ligands was evaporated by a speed vacuum, reconstituted in 80% methanol, and analyzed by LC/MS. […] Samples were all prepared in duplicate and analyzed separately.", "units": {"MS int. (%)": "%"}, "values": [{"smiles": "O=C(O)c1ccc(C(F)(F)F)cc1", "note": "[Fragment 204]", "MS int. (%)": 100.0}]}, {"biological_target": "T2, NS5B (Hepatitis C virus genotype 1b, UniProt P26663)", "T2 construct": "NS5B with a C-terminal 10-His tag was expressed in E. coli; 10-His (C); made in house; host or cells: E. coli", "assay": "X-ray crystallography of fragments soaked into NS5B crystals", "type": "binding", "details": "fragments soaked at 5 mM", "source_text": "Similar to other nucleotide polymerases, the domain distribution of apo HCV NS5B polymerase bears an anatomical resemblance to a right hand with subdomains representing the fingers, thumb and palm[50][51]. Structural and mechanistic studies of NS5B have indicated the existence of multiple allosteric binding domains including palm I, II and III pockets and thumb I and II sites targeted by reported inhibitors. To characterize the binding modes of the fragments studied, they were soaked in NS5B crystals to obtain the protein complex X-ray structures. We were able to resolve electron density corresponding to the soaked compound for five out of ten fragments (crystallographic data summary in Table S4).\nMoreover, the interaction could be enhanced by a π-π conjugate between its benzene ring and Tyr448 (Figure 3A). Fragment 204 engages deep in the palm I pocket through its trifluoromethyl moiety forming a hydrogen bond with Ser368 and van der Waals interaction with Cys366. Additionally, the hydrophobic interaction with Met414 as well as the π-π conjugate to Tyr448 may also contribute to the relatively high binding affinity of this fragment (Figure 3B). Fragment 117 binds at the pocket mainly through van der Waals interactions with Met414, Cys366 and Ser368 (Figure 3C), whereas fragment 328 forms van der Waals interactions with Tyr415 and Cys366 (Figure 3D). We assume these weak interactions may result in the lower binding strengths observed for the two fragments. Fragment 162 binds NS5B in a small cavity of the thumb pocket, with its trifluoromethyl moiety extending a key hydrogen bond with Asn369 as well as making hydrophobic interactions with Ser371 and Glu481. To our knowledge, the three residues constitute a new active domain in the thumb region never disclosed before.\nThe final optimized NS5B crystals were grown by the hanging drop method using a well solution of 30 mg/mL protein, 20% (w/v) PEG-4000, 10% (v/v) glycerol, 5 mM DTT and 50 mM MES (pH 5.5) and diffracted to 2 Å. Fragments were soaked onto the NS5B crystals at a final concentration of 5 mM (2.38% DMSO) for 2–3 days. Diffraction data were collected at Rigaku MicorMax 007HF X-ray diffraction instrument with an R-AXIS HTC detector (Rigaku), and processed using CCP4[60]. The NS5B structure was solved by molecular replacement using NS5B (1QUV) as the search model. The fragment-bound NS5B complex structures were determined by rigid-body refinement using the apo NS5B structure as a starting model. Structure improvement proceeded with multiple rounds of manual model building in Coot, followed by refinement using CCP4. Fragment ligands were fitted into clear Fo-Fc electron density at the late stage of refinement. Images were rendered from PyMOL.", "values": [{"smiles": "N#CC(c1ccccc1)N1CCOCC1", "note": "(stereo not drawn) [Fragment 328]", "Binding site in crystal structure": "palm I allosteric domain"}, {"smiles": "N#CCc1ccc(O)cc1", "note": "[Fragment 114]", "Binding site in crystal structure": "palm I allosteric domain"}, {"smiles": "Nc1ccc(C(F)(F)F)cn1", "note": "[Fragment 162]", "Binding site in crystal structure": "thumb region"}, {"smiles": "O=C(O)c1ccc(C(F)(F)F)cc1", "note": "[Fragment 204]", "Binding site in crystal structure": "palm I allosteric domain"}, {"smiles": "Cc1ccc2oc(=O)ccc2c1", "note": "[Fragment 117]", "Binding site in crystal structure": "palm I allosteric domain"}]}]}
